Measurements taken from US5574043A, “Certain [1,2,5-thiadiazol-4-yl]-1-azabicyclo [3.2.1]octane derivatives and their pharmaceutical uses” (Novo Nordisk A/S, priority 1995, dated 1996).
Structures can show the parent of a compound that is named as a salt.

Target: muscarinic acetylcholine receptors
Test: Inhibition of specific binding of 3H-Oxotremorine-M (OXO BINDING) in vitro, rat cortex
Parameters: species or system male Wistar rats
Settings: rat cortex homogenate, 3H-Oxotremorine 1.0 nM, 30 min at 25° C., pH 7.4
From the text: The pharmacological properties of the compounds of the invention can be illustrated by determining their capability to inhibit the specific binding of ^3 H-Oxotremorine-M (^3 H-Oxo). Birdsdall N. J. M., Hulme E. C., and Burgen A. S. V. (1980). "The Character of Muscarinic Receptors in Different Regions of the Rat Brain". Proc. Roy. Soc. London (Series B) 207,1.
^3 H-Oxo labels muscarinic receptor in the CNS (with a preference for agonist domains of the receptors). Three different sites are labelled by ^3 H-Oxo. […] Using the present experimental conditions only the high and medium affinity sites are determined.
The inhibitory effects of compounds on ^3 H-Oxo binding reflects the affinity for muscarinic acetylcholine receptors.
All preparations are performed at 0°-4° C. unless otherwise indicated. Fresh cortex (0.1-1 g) from male Wistar rats (150-250 g) is homogenized for 5-10 s in 10 ml 20 mM Hepes pH: 7.4, with an Ultra-Turrax homogenizer. The homogenizer, is rinsed with 10 ml of buffer and the combined suspension centrifuged for 15 min at 40,000×g. The pellet is washed three times with buffer. In each step the pellet is homogenized as before in 2×10 ml of buffer and centrifuged for 10 min at 40,000×g.
The final pellet is homogenized in 20 mM Hepes pH: 7.4 (100 ml per g of original tissue) and used for binding assay. Aliquots of 0.5 ml is added 25 μl of test solution and 25 μl of ^3 H-Oxotremorine (1.0 nM, final concentration) mixed and incubated for 30 min at 25° C. Non-specific binding is determined in triplicate using arecoline (1 μg/ml, final concentration) as the test substance. After incubation samples are added 5 ml of ice-cold buffer and poured directly onto Whatman GF/C glass fibre filters under suction and immediately washed 2 times with 5 ml of ice-cold buffer. The amount of radioactivity on the filters are determined by conventional liquid scintillation counting. Specific binding is total binding minus non specific binding.
Test substances are dissolved in 10 ml water (if necessary heated on a steam bath for less than 5 minutes) at a concentration of 2.2 mg/ml.
The test value will be given as IC50 (the concentration (ng/ml) of the test substance which inhibits the specific binding of ^3 H-Oxo by 50%).
IC50 =(applied test substance concentration) [formula] where Co is specific binding in control assays and Cx is the specific binding in the test assay. (The calculations assume normal mass-action kinetics).

Going from N#CCCCSc1nsnc1[C@H]1CN2CCC[C@@H]1C2 (relative stereo) [Compound 91, Endo-6-(3-(3-cyanopropylthio)-1,2,5-thiadiazol-4-yl)-1-azabicyclo[3.2.1]octane oxalate] to N#CCCCCSc1nsnc1[C@H]1CN2CCC[C@H]1C2 (relative stereo) [Compound 78, Exo-6-(3-(4-cyanobutylthio)-1,2,5-thiadiazol-4-yl)-1-azabicyclo[3.2.1]octane oxalate], the “Inhibition in vitro OXO BINDING IC50” value falls from 5.2 ng/mL to 0.30 ng/mL (17-fold).

Going from CCCCCSc1nsnc1[C@H]1CN2CCC[C@H]1C2 (relative stereo) [Compound 31, Exo-6-(3-pentylthio-1,2,5-thiadiazol-4-yl)-1-azabicyclo[3.2.1]octane oxalate] to CCCCCSc1nsnc1[C@H]1CN2CCC[C@@H]1C2 (relative stereo) [Compound 26, Endo-6-(3-pentylthio-1,2,5-thiadiazol-4-yl)-1-azabicyclo[3.2.1]octane oxalate], the “Inhibition in vitro OXO BINDING IC50” value rises from 0.6 ng/mL to 1.4 ng/mL (2.3-fold).

CCOc1nsnc1C1CN2CCC1CC2.O=C(O)/C=C/C(=O)O (centres unmarked) [Compound 9, 3-(3-Ethoxy-1,2,5-thiadiazol-4-yl)-1-azabicyclo[2.2.2]octane fumarate] and CCCCOc1nsnc1C1CN2CCC1CC2.O=C(O)C(=O)O (centres unmarked) [Compound 46, 3-(3-Butoxy-1,2,5-thiadiazol-4-yl)-1-azabicyclo[2.2.2]octane oxalate] are within 1.5-fold of each other in “Inhibition in vitro OXO BINDING IC50” value: 0.69 ng/mL for the first, 0.56 ng/mL for the second.

Compared with CCCCCCCSc1nsnc1C1CN2CCC1CC2.O=C(O)/C=C/C(=O)O (centres unmarked) [Compound 54, 3-(3-Heptylthio-1,2,5-thiadiazol-4-yl)-1-azabicyclo[2.2.2]octane fumarate], CCCSc1nsnc1C1CN2CCC1CC2.O=C(O)C(=O)O (centres unmarked) [Compound 53, 3-(3-Propylthio-1,2,5-thiadiazol-4-yl)-1-azabicyclo[2.2.2]octane oxalate] is 10-fold lower in “Inhibition in vitro OXO BINDING IC50” value: 3.1 ng/mL for the first, 0.3 ng/mL for the second.

Compared with CC(C)CCSc1nsnc1[C@@H]1CN2CCC[C@H]1C2 (relative stereo) [Compound 86, Endo-6-(3-isopentylthio-1,2,5-thiadiazol-4-yl)-1-azabicyclo[3.2.1]octane oxalate], CCCCSc1nsnc1[C@@H]1CN2CCC[C@@H]1C2 (single isomer, unassigned) [Compound 112, (-)-Exo-6-(3-butylthio-1,2,5-thiadiazol-4-yl)-1-azabicyclo[3.2.1]octane (-) D-tartrate] is 18-fold lower in “Inhibition in vitro OXO BINDING IC50” value: 3.5 ng/mL for the first, 0.19 ng/mL for the second.

Going from CCCCCOc1nsnc1[C@@H]1CN2CCC[C@@H]1C2 (relative stereo) [Compound 121, Exo-6-(3-pentyloxy-1,2,5-thiadiazol-4-yl)-1-azabicyclo[3.2.1]octane oxalate] to CCOc1nsnc1[C@H]1CN2CCC[C@@H]1C2 (relative stereo) [Compound 20, Endo-6-(3-ethoxy-1,2,5-thiadiazol-4-yl)-1-azabicyclo[3.2.1]octane oxalate], the “Inhibition in vitro OXO BINDING IC50” value rises from 0.32 ng/mL to 11 ng/mL (34-fold).

First: CCSc1nsnc1[C@H]1CN2CCC[C@@H]1C2 (relative stereo) [Compound 25, Endo-6-(3-ethylthio-1,2,5-thiadiazol-4-yl)-1-azabicyclo[3.2.1]octane oxalate]
Second: CCSc1nsnc1[C@H]1CN2CCC[C@H]1C2 (relative stereo) [Compound 32, Exo-6-(3-ethylthio-1,2,5-thiadiazol-4-yl)-1-azabicyclo[3.2.1]octane oxalate]
The “Inhibition in vitro OXO BINDING IC50” value of the first is 4.2-fold higher: 1.9 ng/mL for the first, 0.45 ng/mL for the second.

Compared with c1ccc(CCCSc2nsnc2[C@H]2CN3CC[C@H]2C3)cc1 (relative stereo) [Compound 41, Exo-3-(3-(3-phenylpropylthio)-1,2,5-thiadiazol-4-yl)-1-azabicyclo[2.2.1]heptane oxalate], O=C(O)/C=C/C(=O)O.c1ccc(CCCSc2nsnc2C2CN3CCC2CC3)cc1 (centres unmarked) [Compound 44, 3-(3-(3-Phenylpropylthio)-1,2,5-thiadiazol-4-yl)-1-azabicyclo[2.2.2]octane fumarate] is 8.4-fold higher in “Inhibition in vitro OXO BINDING IC50” value: 0.56 ng/mL for the first, 4.7 ng/mL for the second.

Clc1nsnc1[C@@H]1CN2CCC[C@@H]1C2 (relative stereo) [Compound 15, Exo-6-(3-chloro-1,2,5-thiadiazol-4-yl)-1-azabicyclo[3.2.1]octane] and CSc1nsnc1[C@H]1CN2CCC[C@H]1C2 (relative stereo) [Compound 74, Exo-6-(3-methylthio-1,2,5-thiadiazol-4-yl)-1-azabicyclo[3.2.1]octane oxalate] are within 1.5-fold of each other in “Inhibition in vitro OXO BINDING IC50” value: 0.61 ng/mL for the first, 0.45 ng/mL for the second.

O=C(O)/C=C/C(=O)O.c1nsnc1C1CN2CCC1CC2 (centres unmarked) [Compound 132, 3-(1,2,5-Thiadiazol-3-yl)-1-azabicyclo[2.2.2]octane fumarate] and O=C(O)/C=C/C(=O)O.c1csc(CCCOc2nsnc2C2CN3CCC2CC3)c1 (centres unmarked) [Compound 110, 3-(3-(3-(2-Thienyl)propoxy)-1,2,5-thiadiazol-4-yl)-1-azabicyclo[2.2.2]octane fumarate] are within 1.5-fold of each other in “Inhibition in vitro OXO BINDING IC50” value: 0.96 ng/mL for the first, 1.1 ng/mL for the second.

Compared with CCCCCCCSc1nsnc1[C@H]1CN2CCC[C@H]1C2 (relative stereo) [Compound 75, Exo-6-(3-heptylthio-1,2,5-thiadiazol-4-yl)-1-azabicyclo[3.2.1]octane oxalate], CCCSc1nsnc1[C@H]1CN2CC[C@H]1C2 (relative stereo) [Compound 40, Exo-3-(3-propylthio-1,2,5-thiadiazol-4-yl)-1-azabicyclo[2.2.1]heptane oxalate] is 5.1-fold lower in “Inhibition in vitro OXO BINDING IC50” value: 0.96 ng/mL for the first, 0.19 ng/mL for the second.

Going from N#CCSc1nsnc1[C@H]1CN2CCC[C@H]1C2 (relative stereo) [Compound 79, Exo-6-(3-cyanomethylthio-1,2,5-thiadiazol-4-yl)-1-azabicyclo[3.2.1]octane oxalate] to N#CCSc1nsnc1[C@H]1CN2CCC[C@@H]1C2 (relative stereo) [Compound 89, Endo-6-(3-cyanomethylthio-1,2,5-thiadiazol-4-yl)-1-azabicyclo[3.2.1]octane oxalate], the “Inhibition in vitro OXO BINDING IC50” value rises from 0.50 ng/mL to 12 ng/mL (24-fold).

First: COc1nsnc1C1=CC2CCCN(C1)C2.O=C(O)C(=O)O (centres unmarked) [Compound 96, 3-(3-Methoxy-1,2,5-thiadiazol-4-yl)-1-azabicyclo[3.3.1]non-3-ene oxalate]
Second: CCCCOc1nsnc1C1=C(Cl)C2CCCN(C1)C2.O=C(O)C(=O)O (centres unmarked) [Compound 93, 4-Chloro-3-(3-butoxy-1,2,5-thiadiazol-4-yl)-1-azabicyclo[3.3.1]non-3-ene oxalate]
The “Inhibition in vitro OXO BINDING IC50” value of the first is 30-fold lower: 0.3 ng/mL for the first, 9.0 ng/mL for the second.

Going from CCSc1nsnc1C1CN2CCC1CC2.O=C(O)C(=O)O (centres unmarked) [Compound 52, 3-(3-Ethylthio-1,2,5-thiadiazol-4-yl)-1-azabicyclo[2.2.2]octane oxalate] to O=C(O)C(=O)O.OC1(c2nsnc2Cl)CN2CCC1CC2 (centres unmarked) [Compound 2, 3-(3-Chloro-1,2,5-thiadiazol-4-yl)-3-hydroxy-1-azabicyclo[2.2.2]octane oxalate], the “Inhibition in vitro OXO BINDING IC50” value rises from 0.61 ng/mL to 270 ng/mL (440-fold).

Compared with COc1nsnc1[C@@H]1CN2CC[C@H]1C2 (relative stereo) [Compound 23, Endo-3-(3-methoxy-1,2,5-thiadiazol-4-yl)-1-azabicyclo[2.2.1]heptane oxalate], COc1nsnc1C1(OC)CN2CCC1CC2.O=C(O)C(=O)O (centres unmarked) [Compound 3, 3-Methoxy-3-(3-methoxy-1,2,5-thiadiazol-4-yl)-1-azabicyclo[2.2.2]octane oxalate] is 4.8-fold higher in “Inhibition in vitro OXO BINDING IC50” value: 43 ng/mL for the first, 208 ng/mL for the second.

Going from CCCCCCOc1nsnc1C1=CN2CCC1CC2.O=C(O)C(=O)O [Compound 5, 3-(3-Hexyloxy-1,2,5-thiadiazol-4-yl)-1-azabicyclo[2.2.2]oct-2-ene oxalate] to Clc1nsnc1C12CCCN(CC1)C2.O=C(O)C(=O)O (centres unmarked) [Compound 67, 5-(3-Chloro-1,2,5-thiadiazol-4-yl)-1-azabicyclo[3.2.1]octane oxalate], the “Inhibition in vitro OXO BINDING IC50” value falls from 18 ng/mL to 0.43 ng/mL (42-fold).
